Data from PMC11802874, “The hypolipidemic effect of MI-883, the combined CAR agonist/ PXR antagonist, in diet-induced hypercholesterolemia model” (Nature Communications, 2025).
Values joined by “and” are separate entries in the source; they are usually repeats but may differ in a detail not shown here. Equal entries are not always repeated.

Tests used:
[1] = tested on: 3D primary human hepatocyte spheroids; assay: RT-qPCR mRNA expression in 3D primary human hepatocyte spheroids; assay type: cell-based; conditions: for CYP2B6 fold change, 3D PHH spheroids, mean of donors / CYP3A4 fold change, 3D PHH spheroids, mean of donors: MI-883 (5 uM)
Protocol: Briefly, PHHs were cultivated for 6 days to generate compact spheroids by spontaneous self-aggregation and then half of PHH medium was exchanged for FBS-free PHH medium. 3D PHHs were treated with MI-883 (5 μM) commenced from day 8 within a time range of 8–120 h (time points were 8, 12, 24, 48, 72, and 120 h). Conditioned FBS-free PHH medium was changed every 2–3 days of the treatment. […] Data are presented as the mean ± SD of fold change expression gained from 3D spheroids of three different donors. ATP assay has been performed as described.

PXR/NCOA2 = target: T1, PXR/NCOA2 (Homo sapiens, UniProt O75469); assay: Mammalian two-hybrid PXR/coactivator NCOA2 recruitment, HepG2; assay type: cell-based; set-up: key: firefly/Metridia luciferase activity ratio (normalized)
T1 construct: PXR-LBD (residues 108–434); expressed in transfected cells; host or cells: HepG2
Protocol: The GAL4-dependent pGL4-G5, harboring a pentamer of GAL4 binding sites in front of the E1b promoter was described before.
Transient batch transfection of HepG2 cells was done as described above. […] All transfections included 0.01 µg pMetLuc2control per well for normalization of firefly luciferase reporter activities. After overnight incubation with the transfection mixtures, cells were treated with chemicals in a volume of 100 µl of cell culture medium. […] Firefly luciferase activity was measured in 10 µl of cell lysates, and Metridia luciferase activity was analyzed in 10 µl of medium supernatant, both as described before. Results were normalized by dividing firefly luciferase activity by Metridia luciferase activity measured from the same well. Measurements of samples were repeated several times (n ≥ 3).

[2] = tested on: humanized PXR-CAR-CYP3A4/3A7 mice, liver; assay: NGS RNA-Seq of liver samples (HFD study); assay type: in vivo, mouse
Protocol: Total RNA from liver samples has been isolated using TRIZOL®. Total RNA was purified using Agencourt RNAClean XP Beads (Beckman Coulter, Inc.) and then the diluted RNA was quantified using Qubit 2.0 Fluorometer with Qubit RNA BR Assay Kit (Invitrogen) for precise measurement. The integrity of purified RNA was evaluated based on RIN (>7) acquired using the 2100 Bioanalyzer System with Total RNA Nano Chip (Agilent Technologies) according to the manufacturer’s protocol.
The input amount of total RNA used in the libraries was 520 ng. Libraries were constructed with NEBNext Ultra II Directional RNA Library Prep Kit for Illumina (New England Biolabs Inc., Ipswich, MA, USA). […] The samples were multiplexed using suitable molecular barcodes by using the NEBNext Multiplex Oligos from Illumina. Adaptor enrichment was performed by using eight cycles of PCR.
The concentration of molecular libraries was measured using Qubit 2.0 Fluorometer with Qubit dsDNA HS Assay Kit (Invitrogen) and subsequently, the fragment sizes were analyzed by Bioanalyzer System 2100 using High Sensitivity DNA Chip (Agilent Technologies), with expected fragments between 200 and 600 bp in size. The molarity of individual libraries was calculated using determined concentrations and modal lengths. Each sample of the library was normalized to 14 nM concentration, and the normalized libraries were pooled and sequenced on an Illumina NovaSeq6000 platform (Illumina) with paired-end sequencing of libraries with a read length of 150 b.
The quality of raw sequencing data was assessed using MultiQC tool. Fastq files were aligned to the mouse reference genome (mm10) using STAR aligner and featureCounts was used to make count matrices. Data was filtered to only include genes with a minimum 60 counts in all samples. Data were analyzed using the DESeq2 package of RStudio 2023.06.1 and R software v4.3.1 (https://www.R-project.org/). […] P values were adjusted for multiple testing to reduce false discovery rate. For further analysis RNAs with more than twofold expression were selected (log2FC > 1 or < –1). Differential expression was analyzed using DESeq2 package (Fig. 4a). Volcano plot was visualized using R package ggplot2 and ggrepel. Gene ontology (GO) and pathway analyses were done with the R package clusterProfiler[64] using function enrichGO. P value < 0.001 was defined as the significance threshold.
A heatmap was made using z-score normalized reads (z = [x-mean]/standard deviation) and visualized using the R package pheatmap. Hierarchical clustering was performed with the Ward method as a part of the pheatmap R package. The data presented in this publication have been deposited in NCBI’s Gene Expression Omnibus database with GEO Series accession number GSE262786.https://www.ncbi.nlm.nih.gov/geo/query/acc.cgi?acc=GSE262786.

[3] = tested on: humanized PXR-CAR-CYP3A4/3A7 mice, ileum; assay: RT-qPCR and Western blotting of ileum samples (HFD/HCD studies); assay type: in vivo, mouse; conditions: for Npc1l1 mRNA (RT-qPCR ileum): FigS14a
Source text: Specific TaqMan probes were used to analyze ileal samples, following the protocol described in Supplementary Table S3.
Western blotting experiments have been performed in BioRad instruments with BioRad precasted gels and reagents. Antibodies are listed in Supplementary Table S4. Densitometry has been done using ChemiDoc™ MP Imaging System and software (BioRad, Hercules, USA). Data are presented as relative protein expression to control samples. For protein expression quantification, areas in histograms have been calculated and related to a reference protein.

[4] = Mouse plasma protein binding; assay type: in vitro ADME
Source text: Plasma protein binding, and stability in human and mouse plasma have been tested as previously described.

[5] = Metabolic stability in mouse liver S9 fraction; conditions: male, CD-1, mouse
Protocol: Shimadzu HPLC system including vacuum degasser, gradient pumps, reverse phase HPLC column, column oven, and autosampler with an API 4000 QTRAP mass spectrometer (Applied Biosystems/MDS Sciex (AB Sciex) with Turbo V ion source and TurboIonspray interface were used. The reference compound midazolam, which is metabolized both by phase I and phase II enzymes, was used. The elimination constant (kel), half-life (t1/2), and intrinsic clearance (Clint) were determined[19] (Table S1).

[6] = FigS14b, ileum, individual animals, relative to vehicle

T1 sequence (O75469 108-434): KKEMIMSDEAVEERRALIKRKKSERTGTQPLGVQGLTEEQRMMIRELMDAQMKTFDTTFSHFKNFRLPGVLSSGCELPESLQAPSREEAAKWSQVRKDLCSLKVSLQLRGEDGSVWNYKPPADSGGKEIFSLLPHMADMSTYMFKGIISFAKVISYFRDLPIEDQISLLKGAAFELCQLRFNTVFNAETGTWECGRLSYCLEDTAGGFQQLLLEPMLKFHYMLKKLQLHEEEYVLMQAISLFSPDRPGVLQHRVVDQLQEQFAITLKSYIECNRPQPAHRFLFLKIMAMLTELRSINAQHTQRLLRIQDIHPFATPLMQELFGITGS

## NC(=O)c1cc(Cn2cc(-c3c(-c4ccc(Cl)cc4)nc4cc(F)ccn34)nn2)ccc1Cl [MI-883, 2-chloro-5-((4-(2-(4-chlorophenyl)-7-fluoroimidazo[1,2-a]pyridin-3-yl)-1H-1,2,3-triazol-1-yl)methyl)benzamide]
[1]; 72 h
  proliferative biomarkers MDM2, PCNA, FOXM1 in 3D human hepatocyte spheroid: no significant effects
  CYP2B6 fold change, 3D PHH spheroids, mean of donors: 8.2
  CYP3A4 fold change, 3D PHH spheroids, mean of donors: 0.8
[1]; 8 h
  CYP2B6 fold change, 3D PHH spheroids, mean of donors: 1.9
  CYP3A4 fold change, 3D PHH spheroids, mean of donors: 0.9
[1]; 12 h
  CYP2B6 fold change, 3D PHH spheroids, mean of donors: 3.0
  CYP3A4 fold change, 3D PHH spheroids, mean of donors: 0.7
[1]; 24 h
  CYP2B6 fold change, 3D PHH spheroids, mean of donors: 5.1
  CYP3A4 fold change, 3D PHH spheroids, mean of donors: 0.8
[1]; 48 h
  CYP2B6 fold change, 3D PHH spheroids, mean of donors: 8.0
  CYP3A4 fold change, 3D PHH spheroids, mean of donors: 1.0
[1]; 120 h
  CYP2B6 fold change, 3D PHH spheroids, mean of donors: 6.7
  CYP3A4 fold change, 3D PHH spheroids, mean of donors: 0.7
PXR/NCOA2; MI-883 30 μM
  PXR/TIF2 (NCOA2) two-hybrid activity, replicates: 1.15 and 1.65 and 1.3 and 1.26 and 0.52
PXR/NCOA2; single agent: RIF (10 µM), MI-883 10 μM
  PXR/TIF2 (NCOA2) two-hybrid activity, replicates: 0.75 and 0.81 and 0.95 and 0.79 and 0.57
[2]; HFD study
  liver Apoc1, Apoc4, Apoa5, Apoa1, RNA-Seq: marginally but significantly downregulated
  liver Scarb1, Angptl3, Lipc, RNA-Seq: marginally, but significantly, downregulated
  liver genes of fatty acid metabolism (Scd1, Fabp2, Srebf1), RNA-Seq: significantly downregulated
  liver transporters Abcb1, Bsep, Abcg5/8: not been significantly affected
[2]; HFD study (Fig. 6e)
  liver Hmgcr mRNA upregulation: 1.31 fold and 1.3 fold
[2]; HFD study, n=5, FDR_DESeq 0.0023
  liver Scd1 mRNA, log2FC_DESeq: -0.4854 log2FC
[2]; HFD study, 0.008 FDR_DESeq
  liver Cyp2c70, log2FC: –0.58 log2FC
[3]; HCD, ileum, individual animals, relative to vehicle
  Npc1l1 mRNA (RT-qPCR ileum): 0.6886 and 0.6208 and 0.503 and 1.313 and 0.759 and 0.8325
[3]; HFD, ileum, individual animals, relative to vehicle
  Npc1l1 mRNA (RT-qPCR ileum): 1.357 and 1.364 and 0.9665 and 1.432
[3]; [6]
  Abcg5 mRNA (RT-qPCR ileum): 1.01 and 0.5455 and 0.4999 and 1.367 and 0.6847 and 1.339
  Abcg8 mRNA (RT-qPCR ileum): 0.9573 and 0.7781 and 0.4243 and 1.303 and 0.6152 and 1.193
[3]; FigS14c, HCD, ileum, individual animals, relative to vehicle
  Fgf15 mRNA (RT-qPCR ileum): 0.6669 and 0.9092 and 0.1811 and 0.1054 and 2.113 and 1.33
[3]; FigS14c, HFD, ileum, individual animals, relative to vehicle
  Fgf15 mRNA (RT-qPCR ileum): 0.03638 and 0.6965 and 4.34 and 0.01802
[3]; FigS14c, ileum, individual animals, relative to vehicle
  Shp mRNA (RT-qPCR ileum): 1.017 and 0.2256 and 0.2775 and 0.6923 and 3.416 and 0.8457
[3]; HFD study
  Asbt protein in the mouse ileum: significantly decreased
[3]; HFD study, relative to control
  ileum Cyp2b6 i, individual animals: 4.346 and 14.7968 and 1.588 and 2.908 and 3.922 and 0.8524
  ileum Mrp4 i, individual animals: 0.275 and 0.7792 and 1.874 and 1.502 and 1.969 and 1.209
  ileum Slc10a2 i, individual animals: 0.08727 and 0.1129 and 0.7704 and 0.8835 and 0.4948
  ileum Slc51a i, individual animals: 0.2127 and 0.5386 and 0.8471 and 0.8796 and 0.7946 and 0.7965
  ileum Slc51b i, individual animals: 0.7174 and 1.595 and 0.9945 and 0.7427 and 0.4728 and 0.5989
[3]; Supplementary Fig. 14
  ileal Npc1l1 and Abcg5/8: did not observe any regulation
  ileal Shp and Fgf15 mRNA levels: not affected
[4]
  fraction unbound: 0.01
[5]; liver S9 fraction
  microsomal CLint: 3 µL/min/mg
[5]; s9
  half-life: 1.87 h
